From US10391095B2, “DNA-PK inhibitors” (Vertex Pharmaceuticals Incorporated, priority 2012, dated 2019)

Each compound was assayed against DNA-PK (Homo sapiens, UniProt P78527) (assay: DNA-PK inhibition assay (radiometric, 33P-ATP)). Details: 100 μM ATP, competitive tight-binding fit.
Format: biochemical
Description: Compounds were screened for their ability to inhibit DNA-PK kinase using a standard radiometric assay. Briefly, in this kinase assay the transfer of the terminal ^33P-phosphate in ^33P-ATP to a peptide substrate is interrogated. The assay was carried out in 384-well plates to a final volume of 50 μL per well containing approximately 6 nM DNA-PK, 50 mM HEPES (pH 7.5), 10 mM MgCl2, 25 mM NaCl, 0.01% BSA, 1 mM DTT, 10 μg/mL sheared double-stranded DNA (obtained from Sigma), 0.8 mg/mL DNA-PK peptide ([…] obtained from American Peptide), and 100 μM ATP. Accordingly, compounds of the invention were dissolved in DMSO to make 10 mM initial stock solutions. Serial dilutions in DMSO were then made to obtain the final solutions for the assay. A 0.75 μL aliquot of DMSO or inhibitor in DMSO was added to each well, followed by the addition of ATP substrate solution containing ^33P-ATP (obtained from Perkin Elmer). The reaction was started by the addition of DNA-PK, peptide and ds-DNA. After 45 min, the reaction was quenched with 25 μL of 5% phosphoric acid. The reaction mixture was transferred to MultiScreen HTS 384-well PH plates (obtained from Millipore), allowed to bind for one hour, and washed three times with 1% phosphoric acid. Following the addition of 50 μL of Ultima Gold™ high efficiency scintillant (obtained from Perkin Elmer), the samples were counted in a Packard TopCount NXT Microplate Scintillation and Luminescence Counter (Packard BioScience). The Ki values were calculated using Microsoft Excel Solver macros to fit the data to the kinetic model for competitive tight-binding inhibition.

Compound	Ki [nM]
COCCn1ccc2cc(-c3cc(NCCc4ccccc4OC)ncn3)cnc21 [Compound 38]	< 30
CC(CNc1cc(-c2cnc3[nH]ncc3c2)ncn1)c1ccccc1OC1COC1 (centres unmarked) [Compound 214]	< 30
CC(CNc1cc(-c2ccc(N3CCN(C)CC3)nc2)ncn1)c1ccc(F)cc1OC1CC1 (centres unmarked) [Compound 271]	< 30
CNC(=O)c1ccc(C(C)CNc2cc(-c3cnc4c(cnn4CC(=O)OC)c3)ncn2)c(OC)c1 (centres unmarked) [Compound 273]	< 30
CC(CNc1cc(-c2cnc3c(cnn3CCO)c2)ncn1)c1cncc2c1OCCC2 (centres unmarked) [Compound 452]	< 30
Cc1ccc(-c2cc(NC[C@@H](C)c3cccc4nccnc34)ncn2)cn1 [Compound 445]	< 30
CNC(=O)c1ccc(C(C)CNc2cc(-c3ccc(OC)nc3)ncn2)c(OC)c1 (centres unmarked) [Compound 320]	< 30
CNC(=O)c1ccc([C@H](C)CNc2cc(-c3ccc4c(cnn4C4COC4)c3)ncn2)c(OC)c1 [Compound 243]	< 30
COc1ccccc1CCNc1cc(-c2cnc3c(cnn3CCC(C)C)c2)ncn1 [Compound 45]	< 30
Cc1ccc(-c2cc(NCC(C)c3cncnc3OC3CCC3)ncn2)cn1 (centres unmarked) [Compound 299]	< 30
CNC(=O)c1ccc([C@H](C)CNc2cc(-c3ccc(NC(CO)CO)nc3)ncn2)c(OC)c1 [Compound 353]	< 30
CNC(=O)c1ccc([C@H](C)CNc2cc(-c3ccc4c(cnn4CC4CC4)c3)ncn2)c(OC)c1 [Compound 294]	< 30
COc1ccccc1[C@H](C)CNc1cc(-c2ccc(NCC3(O)CC3)nc2)ncn1 [Compound 204]	< 30
CNC(=O)c1c(F)cnc2c([C@H](C)CNc3cc(-c4cnc(OC5CCC5)nc4)ncn3)cccc12 [Compound 981]	< 30
CNC(=O)c1c(F)cnc2c([C@H](C)CNc3cc(-c4cnc(OC(C)C)nc4)ncn3)cccc12 [Compound 938]	< 30
COc1cc(CO)ccc1C(C)CNc1cc(-c2ccc(N3CCN(C(C)=O)CC3)nc2)ncn1 (centres unmarked) [Compound 115]	< 30
CNC(=O)c1ccc([C@H](C)CNc2cc(-c3ccc4c(ccn4C)c3)ncn2)c(OC)c1 [Compound 268]	< 30
COc1ccc(C(C)CNc2cc(-c3ccc(C)nc3)ncn2)c(N)n1 (centres unmarked) [Compound 642]	< 30

Compound	Ki [nM]
CC(CNc1cc(-c2cnc3c(cnn3C3CCN(C)CC3)c2)ncn1)c1ccccc1OC1CC1 (centres unmarked) [Compound 145]	< 30
CNC(=O)c1ccc([C@H](C)CNc2cc(-c3ccc4[nH]c(=O)[nH]c4c3)ncn2)c(OC)c1 [Compound 315]	< 30
CC(CNc1cc(-c2cnc3c(cnn3CCO)c2)ncn1)c1cccc2scnc12 (centres unmarked) [Compound 402]	< 30
C[C@H](CNc1cc(-c2cnc3c(cnn3C3COC3)c2)ncn1)c1ccnc2c1OCCO2 [Compound 493]	< 30
CNC(=O)c1ccc([C@H](C)CNc2cc(-c3cnc4c(cnn4CC(C)(C)O)c3)ncn2)c(OC)c1 [Compound 285]	< 30
CNc1ncc(-c2cc(NC[C@@H](C)c3ccnc4c3OCCO4)ncn2)cn1 [Compound 462, (S)—N^6-(2-(2,3-dihydro-[1,4]dioxino[2,3-b]pyridin-8-yl)propyl)-N^2′-methyl-[4,5′-bipyrimidine]-2′,6-diamine]	< 30
CN1CCN(c2ccc(-c3cc(NCCc4cccc5c4OCC5)ncn3)cn2)CC1 [Compound 30]	< 30
C[C@H](CNc1cc(-c2cnc3c(cnn3CC(O)CO)c2)ncn1)c1ccnc2c1OCC2 (single isomer, unassigned) [Compound 436]	< 30
Cc1ccc(-c2cc(NCC(C)c3ccccc3OCC3CCCC3)ncn2)cn1 (centres unmarked) [Compound 194]	< 30
CCCn1ccc2cc(-c3cc(NCCc4ccccc4OC)ncn3)cnc21 [Compound 36]	< 30
CCOC(=O)C(C)(C)n1ncc2cc(-c3cc(NCC(C)c4ccc(C(=O)NC)cc4OC)ncn3)cnc21 (centres unmarked) [Compound 276]	< 30
COc1ccccc1[C@H](C)CNc1cc(-c2ccnc(NCCSC)c2)ncn1 [Compound 210]	< 30
COc1cscc1C(C)CNc1cc(-c2ccc(C)nc2)ncn1 (centres unmarked) [Compound 144]	< 30
Cc1ccc(-c2cc(NCC(C)c3cnccc3OC3CC3)ncn2)cn1 (centres unmarked) [Compound 165]	< 30
CNC(=O)c1cc(OC)c(C(C)CNc2cc(-c3ccc(C)nc3)ncn2)cn1 (centres unmarked) [Compound 376]	< 30
CCn1ccc2cc(-c3cc(NCCc4ccccc4OC)ncn3)cnc21 [Compound 35]	< 30
CNC(=O)c1ccc([C@H](C)CNc2cc(-c3ccnc4c3ccn4C3COC3)ncn2)c(OC)c1 [Compound 479]	< 30

The remaining lines, values ahead:

Ki [nM]	Compound
< 30	CNC(=O)c1ccnc2c([C@H](C)CNc3cc(-c4cnc(C5CC5)nc4)ncn3)cccc12 [Compound 790]
< 30	CNC(=O)c1c(F)cnc2c([C@H](C)CNc3cc(-c4ccc(C(O)C(C)C)nc4)ncn3)cccc12 (some centres unmarked) [Compound 927]
< 30	CNC(=O)c1c(F)cnc2c([C@H](C)CNc3cc(-c4cnn(C)c4)ncn3)cccc12 [Compound 783]
< 30	CNC(=O)c1cc(C)nc2c([C@H](C)CNc3cc(-c4ccc(C)nc4)ncn3)cccc12 [Compound 484]
< 30	CNC(=O)c1c(F)cnc2c([C@H](C)CNc3cc(-c4ccc(F)nc4)ncn3)cccc12 [Compound 899]
< 30	CNC(=O)c1ccnc2c([C@H](C)CNc3cc(-c4cnc(NC(C)C)nc4)ncn3)cccc12 [Compound 618]
< 30	CNC(=O)c1ccnc2c([C@H](C)CNc3cc(-c4ccc5c(c4)CCO5)ncn3)cccc12 [Compound 842]
< 30	CNC(=O)c1ccnc2c([C@H](C)CNc3cc(-c4ccc(NCCc5ccc(C)o5)nc4)ncn3)cccc12 [Compound 738]
< 30	CNC(=O)c1ccnc2c([C@H](C)CNc3cc(-c4ccc(-c5nnnn5C)nc4)ncn3)cccc12 [Compound 958]
< 30	CNC(=O)c1ccnc2c([C@H](C)CNc3cc(-c4cnc(OC)c(CO)c4)ncn3)cccc12 [Compound 882]
< 30	CNC(=O)c1ccnc2c([C@H](C)CNc3cc(-c4ccc(C)nc4)ncn3)cc(F)cc12 [Compound 562]
< 30	CNC(=O)c1ccc(C(C)CNc2cc(-c3ccc4ncccc4c3)ncn2)c(OC)c1 (centres unmarked) [Compound 256]
< 30	[2H]c1nc(C)nc([2H])c1-c1cc(NC[C@@H](C)c2ccc(F)c3c(C(=O)NC)ccnc23)ncn1 [Compound 861]
< 30	CNC(=O)c1ccnc2c([C@H](C)CNc3cc(-c4ccc(C)nc4)ncn3)ccc(F)c12 [Compound 515]
< 30	CNC(=O)c1ccnc2c([C@H](C)CNc3cc(-c4ccc(F)nc4)ncn3)cccc12 [Compound 603]
< 30	CNC(=O)c1ccnc2c([C@H](C)CNc3cc(-c4cnc5c(c4)CCCO5)ncn3)cccc12 [Compound 793]
< 30	CNC(=O)c1ccnc2c([C@H](C)CNc3cc(-c4ccc(C)nc4)ncn3)ccc(OC)c12 [Compound 509]

Ki [nM]	Compound
< 30	CNC(=O)c1ccnc2c([C@H](C)CNc3cc(-c4ccc(C)nc4)ncn3)ccnc12 [Compound 624]
< 30	CNC(=O)c1c(F)cnc2c([C@H](C)CNc3cc(-c4cnc(C)c(F)c4)ncn3)cccc12 [Compound 973]
< 30	CNC(=O)c1ccnc2c([C@H](C)CNc3cc(-c4ccnc(C5CC5)c4)ncn3)cccc12 [Compound 911]
< 30	CNC(=O)c1c(-n2ccc(C)n2)cnc2c([C@H](C)CNc3cc(-c4ccc(C)nc4)ncn3)cccc12 [Compound 740]
< 30	[2H]c1nc(NC[C@@H](C)c2cccc3c(C(=O)NC)ccnc23)cc(-c2ccc(C)nc2)n1 [Compound 604]
< 30	CNC(=O)c1ccnc2c([C@H](C)CNc3cc(-c4ccc(C(=O)N(C)C)s4)ncn3)cccc12 [Compound 777]
< 30	CNC(=O)c1ccnc2c([C@H](C)CNc3cc(-c4cnc(N5CCC(O)CC5)nc4)ncn3)cccc12 [Compound 729]
< 30	CNC(=O)c1ccnc2c([C@H](C)CNc3cc(-c4cnc(C(C)(C)OC)nc4)ncn3)cccc12 [Compound 928]
< 30	CCNC(=O)c1ccnc2c([C@H](C)CNc3cc(-c4ccc(C)nc4)ncn3)cccc12 [Compound 545]
< 30	CNC(=O)c1c(N(C)C)cnc2c([C@H](C)CNc3cc(-c4ccc(C)nc4)ncn3)cccc12 [Compound 765]
< 30	CNC(=O)c1ccnc2c([C@H](C)CNc3cc(-c4cnc(N)nc4)ncn3)cccc12 [Compound 608]
< 30	CNC(=O)c1ccnc2c([C@H](C)CNc3cc(-c4ccc(C)cc4)ncn3)cccc12 [Compound 671]
< 30	CNC(=O)c1ccnc2c([C@H](C)CNc3cc(-c4ccc(OC)c(F)c4)ncn3)cccc12 [Compound 823]
< 30	CNC(=O)c1ccnc2c([C@H](C)CNc3cc(-c4ccc(NC5CCN(C)CC5)nc4)ncn3)cccc12 [Compound 635]
< 30	CCNc1ccc(-c2cc(NC[C@@H](C)c3cc(F)cc4c(C(=O)NC)ccnc34)ncn2)cn1 [Compound 572]
< 30	CNC(=O)c1ccnc2c([C@H](C)CNc3cc(-c4ccc(C(C)C)nc4)ncn3)cccc12 [Compound 848]
